Results from article PMC3443238, “Synthesis and Antiangiogenic Activity of N-Alkylated Levamisole Derivatives” (PLoS ONE, 2012).
Counter-ions that a name gives are not always drawn.

Key:
[1] = tested on: tumor growth; conditions: 12 mg/kg in nude mice; cited from earlier work
[2] = target: T1, bovine kidney tissue non-specific alkaline phosphatase (TNAP) (Bos taurus, UniProt P09487); experiment: Alkaline phosphatase assay (p-nitrophenyl phosphate), bovine kidney enzyme; type: biochemical
T1 construct: alkaline phosphatase (0.01 U/mL) from human placenta or bovine kidneys; from tissue; host or cells: bovine kidneys
T1 sequence (P09487 18-499 limits assumed): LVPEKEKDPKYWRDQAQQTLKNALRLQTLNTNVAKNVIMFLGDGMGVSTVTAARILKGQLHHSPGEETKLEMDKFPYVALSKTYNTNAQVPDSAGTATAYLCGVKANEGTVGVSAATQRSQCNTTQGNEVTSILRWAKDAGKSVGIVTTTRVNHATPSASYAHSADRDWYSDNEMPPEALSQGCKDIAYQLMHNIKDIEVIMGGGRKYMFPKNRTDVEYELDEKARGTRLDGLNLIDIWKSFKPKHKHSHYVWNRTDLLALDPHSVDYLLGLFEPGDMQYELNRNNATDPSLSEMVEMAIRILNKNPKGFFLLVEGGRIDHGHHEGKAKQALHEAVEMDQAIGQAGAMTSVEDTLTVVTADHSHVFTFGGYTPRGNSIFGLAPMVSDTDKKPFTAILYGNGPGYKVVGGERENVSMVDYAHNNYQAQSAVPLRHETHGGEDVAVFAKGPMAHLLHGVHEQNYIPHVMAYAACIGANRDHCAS
Procedure: (§1) The levamisole derivatives were diluted to 2.5, 5 and 10 mM in DMSO. Samples (10 µL) and 90 µL solution of alkaline phosphatase (0.01 U/mL) from human placenta or bovine kidneys diluted in substrate buffer were added to a 96-well microtiter plate and incubated for 35 minutes at room temperature. Hereafter, 100 µL p-nitrophenyl phosphate (2 mg/mL) were added, and the plate was read at 405 nm with background subtraction at 650 nm on a Versamax Elisa reader (Molecular Devices, Sunnyvale, CA, USA) after 24 and 35 min. Results were obtained as the mean of double determinations. The EC50 values were read from the curve at half maximal absorbance.

[3] = tested on: human umbilical vein endothelial cells (HUVECs) in co-culture with normal human dermal fibroblasts (NHDF); experiment: in vitro angiogenesis assay, HUVEC-NHDF co-culture, CD31 immunostaining; type: cell-based; conditions: 1 mM
Procedure: The antiangiogenic effects of the compounds were determined in a previously developed assay, designed to evaluate the growth and differentiation of human umbilical vein endothelial cells (HUVECs) in co-culture with normal human dermal fibroblasts (NHDF). […] The cluster morphology known from (S)-levamisole, was also observed for tetramisole (2) (Figure 5B and Table 1), p-bromolevamisole (3) (Figure 5C and Table 1), and N-methyllevamisoles (7a, b), with the latter mentioned showing a slightly more pronounced effect (Figure 5E and F, Figure 6 A–D, Table 1). […] Compound 4 (Figure 5D and Table 1), on the other hand, inhibited the capillary network formation to give small cords exclusively, which is reminiscent of the effect of suramin (5) (Figure 5N and Table 1), another well-known angiogenesis inhibitor [44], [51].
Co-culture cell assays were performed according to a method described previously, [44]. Briefly, 10^3 NHDFs were cultured in each well of a 96-well microtiter plate in NHDF standard medium (100 μL, FGM-2 Bullet kit) at 37°C in an atmosphere containing 5% CO2. After 3 days the medium was removed and 10^3 HUVECs were seeded onto the NHDF in TFSM2 medium (135 μL). The samples of the individual compounds were prepared by weight and dissolved in a concentration of […] in DMSO, PBS, or Milli-Q water followed by pH adjustment, and sterile filtration through 0.22 μm filters. Medium, buffer controls or test samples of 15 µL were added to each well containing the HUVEC–NHDF co-culture and were incubated for 3 days. Experiments were repeated 2–4 times with identical results.
HUVEC and fibroblasts were stained with a CD31 antibody according to the method previously described, [44]. Briefly, the cells were washed with PBS, fixed with ethanol, blocked with TTN buffer, incubated with mouse anti-human CD31 diluted 1∶250 in TTN buffer, washed in TTN buffer and incubated with alkaline phosphatase-conjugated goat anti-mouse IgG diluted 1∶1000 in TTN buffer. Bound antibody was subsequently visualised with BCIP/NBT and inspected in an Olympus IX70 microscope and photographed with an Olympus DP12 digital camera (Magnification: 40x). Image analysis was carried out using the program AnalySIS (Soft Imaging Systems, Münster, Germany).

[4] = target: T2, human placenta alkaline phosphatase (HPAP) (Homo sapiens, UniProt P05187); experiment: Alkaline phosphatase assay (p-nitrophenyl phosphate), human placenta enzyme; type: biochemical
T2 construct: alkaline phosphatase (0.01 U/mL) from human placenta or bovine kidneys; from tissue; host or cells: human placenta
T2 sequence (P05187 23-506 limits assumed): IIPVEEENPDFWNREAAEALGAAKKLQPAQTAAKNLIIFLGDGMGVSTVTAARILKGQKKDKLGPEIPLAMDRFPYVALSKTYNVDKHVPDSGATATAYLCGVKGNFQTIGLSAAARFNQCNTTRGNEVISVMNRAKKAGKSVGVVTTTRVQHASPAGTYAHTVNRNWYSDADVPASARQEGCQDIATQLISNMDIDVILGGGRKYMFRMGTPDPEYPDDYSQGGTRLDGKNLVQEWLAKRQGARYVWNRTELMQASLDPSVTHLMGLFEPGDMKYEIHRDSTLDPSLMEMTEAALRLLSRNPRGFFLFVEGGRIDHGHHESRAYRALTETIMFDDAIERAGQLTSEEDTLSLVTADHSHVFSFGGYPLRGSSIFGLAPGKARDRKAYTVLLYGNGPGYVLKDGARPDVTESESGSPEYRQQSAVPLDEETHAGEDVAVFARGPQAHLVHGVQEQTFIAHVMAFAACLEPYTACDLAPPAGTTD
Procedure: as §1

c1ccc([C@H]2CN3CCSC3=N2)cc1 [Compound 1, (S)-levamisole hydrochloride, reference compound]
tumor growth inhibition [1]: significant tumor growth inhibition | IC50 [2]: 600 µM | Grading [3]: ++ (clusters with area >4%) | Morphology [3]: Clusters | Area % (percent of the area covered by HUVEC as observed by CD31 staining) ([3]; medium control 10.2, DMSO 8.4): 7.5% | IC50 [4]: 1100 µM
